The target of one data set is T1, PtNIT1 (Populus trichocarpa, UniProt A0A2Z4EGE4).
T1 construct: tag cleavage not mentioned
T1 sequence (A0A2Z4EGE4 1-377): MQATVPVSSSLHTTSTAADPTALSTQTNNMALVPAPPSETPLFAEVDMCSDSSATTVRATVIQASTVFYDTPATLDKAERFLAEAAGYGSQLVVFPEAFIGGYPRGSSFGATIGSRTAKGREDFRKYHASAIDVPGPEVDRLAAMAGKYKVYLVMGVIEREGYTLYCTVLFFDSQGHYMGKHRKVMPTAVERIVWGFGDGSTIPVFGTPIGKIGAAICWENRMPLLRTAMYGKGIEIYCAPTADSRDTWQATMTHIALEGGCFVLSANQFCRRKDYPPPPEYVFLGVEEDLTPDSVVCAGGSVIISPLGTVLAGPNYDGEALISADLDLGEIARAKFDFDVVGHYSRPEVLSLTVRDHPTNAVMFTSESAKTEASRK
The data set can be described thus: LC-MS/MS product formation. The conditions noted are these: potassium phosphate pH 7.2, 32 °C (standard assay). In kind it is biochemical.

Substrate in data set [1]: N#CCc1c[nH]c2ccccc12
Briefly: LC-MS/MS product formation. In kind it is biochemical, Populus trichocarpa. The conditions noted are these: potassium phosphate pH 7.2, 32 °C (standard assay).

Consider three molecules from paper PMC6196558, “The nitrilase PtNIT1 catabolizes herbivore-induced nitriles in Populus trichocarpa” (BMC Plant Biology, 2018).

As usually defined, the Km is the substrate concentration at which the rate is half of its maximum.

As for `N#CCc1ccccc1` [benzyl cyanide], on PtNIT1, the Km was determined as 24.7 ± 1.8 mM.

Regarding `N#CC[C@H](N)C(=O)O` [β-cyanoalanine], the Km at PtNIT1 is 1.2 ± 0.1 mM.

B1: PtNIT1 (Populus trichocarpa) (protein)
chain: MQATVPVSSSLHTTSTAADPTALSTQTNNMALVPAPPSETPLFAEVDMCSDSSATTVRATVIQASTVFYDTPATLDKAERFLAEAAGYGSQLVVFPEAFIGGYPRGSSFGATIGSRTAKGREDFRKYHASAIDVPGPEVDRLAAMAGKYKVYLVMGVIEREGYTLYCTVLFFDSQGHYMGKHRKVMPTAVERIVWGFGDGSTIPVFGTPIGKIGAAICWENRMPLLRTAMYGKGIEIYCAPTADSRDTWQATMTHIALEGGCFVLSANQFCRRKDYPPPPEYVFLGVEEDLTPDSVVCAGGSVIISPLGTVLAGPNYDGEALISADLDLGEIARAKFDFDVVGHYSRPEVLSLTVRDHPTNAVMFTSESAKTEASRK
notes: tag cleavage not mentioned
On to B1, for which the Km in data set [1] is listed as 10.0 ± 1.3 mM.
